Each structure is given as a SMILES string.

Sequence of purified human, His-tagged PRC2 complex (O75530 whole entry): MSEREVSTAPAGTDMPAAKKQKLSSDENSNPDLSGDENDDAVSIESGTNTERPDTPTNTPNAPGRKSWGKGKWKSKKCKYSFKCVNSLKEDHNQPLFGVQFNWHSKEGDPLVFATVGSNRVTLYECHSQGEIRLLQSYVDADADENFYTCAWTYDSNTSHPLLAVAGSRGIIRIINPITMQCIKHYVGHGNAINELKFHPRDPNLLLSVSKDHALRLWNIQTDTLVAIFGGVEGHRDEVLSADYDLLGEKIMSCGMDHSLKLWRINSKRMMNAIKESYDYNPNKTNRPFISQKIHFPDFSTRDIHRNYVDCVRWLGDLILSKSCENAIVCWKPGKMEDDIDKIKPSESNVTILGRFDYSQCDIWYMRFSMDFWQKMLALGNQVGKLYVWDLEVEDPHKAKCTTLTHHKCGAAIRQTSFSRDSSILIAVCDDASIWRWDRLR
Sequence of purified human, His-tagged PRC2 complex (Q15910 whole entry partner): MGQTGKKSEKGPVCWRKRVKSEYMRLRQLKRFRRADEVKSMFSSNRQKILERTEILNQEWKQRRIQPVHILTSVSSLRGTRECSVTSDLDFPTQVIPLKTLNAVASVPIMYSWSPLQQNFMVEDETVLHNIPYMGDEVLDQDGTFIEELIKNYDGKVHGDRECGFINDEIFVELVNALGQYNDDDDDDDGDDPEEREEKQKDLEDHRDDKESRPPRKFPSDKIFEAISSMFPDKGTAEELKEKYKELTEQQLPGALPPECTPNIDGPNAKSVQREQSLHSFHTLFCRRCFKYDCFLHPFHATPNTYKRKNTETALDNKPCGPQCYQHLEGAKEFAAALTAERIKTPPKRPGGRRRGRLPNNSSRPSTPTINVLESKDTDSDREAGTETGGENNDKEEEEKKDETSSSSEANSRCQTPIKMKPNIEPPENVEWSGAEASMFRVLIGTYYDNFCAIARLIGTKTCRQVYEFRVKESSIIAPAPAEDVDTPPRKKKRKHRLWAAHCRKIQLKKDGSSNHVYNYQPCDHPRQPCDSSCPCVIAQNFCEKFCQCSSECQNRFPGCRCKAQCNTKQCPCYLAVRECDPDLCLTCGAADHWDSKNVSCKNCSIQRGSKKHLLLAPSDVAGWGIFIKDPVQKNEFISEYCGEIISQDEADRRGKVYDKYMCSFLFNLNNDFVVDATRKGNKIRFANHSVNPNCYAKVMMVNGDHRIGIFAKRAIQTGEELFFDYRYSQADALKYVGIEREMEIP
Sequence of purified human, His-tagged PRC2 complex (Q15022 whole entry partner): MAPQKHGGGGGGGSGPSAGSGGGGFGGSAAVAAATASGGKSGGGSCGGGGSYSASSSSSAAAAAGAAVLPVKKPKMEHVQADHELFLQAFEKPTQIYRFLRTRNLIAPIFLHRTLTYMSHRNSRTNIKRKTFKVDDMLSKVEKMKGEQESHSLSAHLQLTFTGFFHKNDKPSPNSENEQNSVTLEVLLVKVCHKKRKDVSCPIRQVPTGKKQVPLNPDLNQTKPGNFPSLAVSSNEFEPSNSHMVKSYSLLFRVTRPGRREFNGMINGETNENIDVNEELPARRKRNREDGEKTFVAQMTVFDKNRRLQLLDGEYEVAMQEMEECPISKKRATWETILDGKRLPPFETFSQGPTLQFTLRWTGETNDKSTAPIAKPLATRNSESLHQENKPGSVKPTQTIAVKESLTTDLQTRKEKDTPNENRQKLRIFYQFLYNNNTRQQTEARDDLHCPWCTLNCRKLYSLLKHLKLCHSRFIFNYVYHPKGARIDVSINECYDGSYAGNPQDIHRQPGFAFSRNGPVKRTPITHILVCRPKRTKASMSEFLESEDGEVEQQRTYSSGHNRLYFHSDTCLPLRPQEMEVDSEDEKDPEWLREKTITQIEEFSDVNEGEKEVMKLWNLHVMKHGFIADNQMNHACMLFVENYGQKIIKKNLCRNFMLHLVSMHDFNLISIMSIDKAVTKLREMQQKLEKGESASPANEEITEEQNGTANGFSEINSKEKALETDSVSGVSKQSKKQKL
Sequence of purified human, His-tagged PRC2 complex (Q6ZN18 whole entry partner): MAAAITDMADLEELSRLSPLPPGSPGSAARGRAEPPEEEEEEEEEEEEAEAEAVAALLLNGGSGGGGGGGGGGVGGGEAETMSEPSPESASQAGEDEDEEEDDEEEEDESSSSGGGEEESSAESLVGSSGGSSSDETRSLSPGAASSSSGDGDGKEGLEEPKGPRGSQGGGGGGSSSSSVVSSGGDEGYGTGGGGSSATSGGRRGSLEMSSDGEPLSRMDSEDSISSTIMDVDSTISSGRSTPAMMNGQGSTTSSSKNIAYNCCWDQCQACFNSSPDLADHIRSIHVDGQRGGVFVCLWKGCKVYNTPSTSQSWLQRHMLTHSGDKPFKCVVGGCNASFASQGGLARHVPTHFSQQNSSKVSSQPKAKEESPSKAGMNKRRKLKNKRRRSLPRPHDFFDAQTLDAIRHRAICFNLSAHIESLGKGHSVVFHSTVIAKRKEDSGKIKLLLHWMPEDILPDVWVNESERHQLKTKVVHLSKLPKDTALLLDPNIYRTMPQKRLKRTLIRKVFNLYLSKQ
Sequence of purified human, His-tagged PRC2 complex (Q09028 whole entry partner): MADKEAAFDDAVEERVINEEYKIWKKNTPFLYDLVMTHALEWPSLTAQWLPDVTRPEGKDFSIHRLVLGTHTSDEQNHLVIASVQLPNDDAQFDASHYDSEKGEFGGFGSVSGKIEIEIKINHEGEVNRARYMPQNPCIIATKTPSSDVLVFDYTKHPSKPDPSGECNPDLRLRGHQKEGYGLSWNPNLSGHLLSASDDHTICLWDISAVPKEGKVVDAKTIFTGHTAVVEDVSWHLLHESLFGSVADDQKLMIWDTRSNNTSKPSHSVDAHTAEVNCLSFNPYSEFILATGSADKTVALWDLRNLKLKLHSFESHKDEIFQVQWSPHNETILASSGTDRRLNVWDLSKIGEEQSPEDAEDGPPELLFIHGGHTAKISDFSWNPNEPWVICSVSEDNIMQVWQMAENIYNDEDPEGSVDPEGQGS

For the assay, the target named is purified human, His-tagged PRC2 complex (Homo sapiens (Human), UniProt O75530). The assay can be described thus: Hot Spot HMT assay, inhibition of PRC2 enzymatic activity. The class given is biochemical. The following applies: 10 nM PRC2 complex, 1 μM 3H-SAM, core histone H3, 10-point dose-response. The source says:
The assay uses purified human, His-tagged PRC2 complex, including N-terminal His-tagged EZH2 enzyme, N-terminal Flag-tagged embryonic ectoderm development protein (EED), N-terminal His-tagged suppressor of zeste 12 (SUZ12), N-terminal His-tagged AEBP2, and N-terminal His-tagged RbAp48. In this assay, the transfer of the tritiated methyl group from radiolabeled S-adenosyl methionine (SAM) to purified core histone protein by EZH2 is quantitated after filtration to determine the activity of the core PRC2 complex in the presence and absence of compound.
The initial starting concentration for the serial dilutions of each compound was 1.0 μM. […] SAH (S-(5-adenosyl)-L-homocysteine) was used as a positive control for assay validation.
An aliquot of each serial dilution of test compound was added to deep 384 well plate using Acoustic Technology instrument (Echo 550, LabCyte) containing reaction buffer (50 mM Tris-HCl (pH 8.)), 0.01% Brij35, 1 mM EDTA, 1 mM DTT, 1 mM PMSF and 1% DMSO), 10 nM purified PRC2 complex and 0.05 mg/ml core histone H3 in a 5 μl volume. The reaction was mixed gently and then pre-incubated for 20 min at 30° C. The enzymatic reaction was initiated by adding 1 μM S-Adenosyl-L-[methyl-^3H]methionine and incubated for 1 hr at 30° C. After 1 hr, the reaction product was detected using a filter binding method and the amount of tritiated H3 core histone was quantitated using a scintillation counter. […] Key: A=<100 nM; B=>100 nM-<500 nM; and C=>500 nM.
On to `Cc1cc(-c2cnc(NCc3cccc4c3CCO4)n3cc(C#N)nc23)n(C)n1` [Example 30, 5-(((2,3-dihydrobenzofuran-4-yl)methyl)amino)-8-(1,3-dimethyl-1H-pyrazol-5-yl)imidazo[1,2-c]pyrimidine-2-carbonitrile], for which the IC50 (in general, the concentration that gives 50% inhibition) lay within 0.1 to 0.5 µM.

On to `CN(C)C(=O)c1ccc(-c2cnc(NCc3c(F)ccc4c3CCO4)n3cc(C#N)nc23)c(Cl)c1` [Example 31, 3-chloro-4-(2-cyano-5-(((5-fluoro-2,3-dihydrobenzofuran-4-yl)methyl)amino)imidazo[1,2-c]pyrimidin-8-yl)-N,N-dimethylbenzamide], for which the IC50 is less than 0.1 µM.

In turn, `CN(C)Cc1ccc(-c2cnc(NCc3c(F)ccc4c3CCO4)n3cc(C#N)nc23)c(Cl)c1` [Example 33, 8-(2-chloro-4-((dimethylamino)methyl)phenyl)-5-(((5-fluoro-2,3-dihydrobenzofuran-4-yl)methyl)amino)imidazo[1,2-c]pyrimidine-2-carbonitrile] registered an IC50 of less than 0.1 µM.

As to `CN(C)C(=O)c1ccc(-c2cnc(NCc3c(F)ccc4c3CCO4)n3cc(C#N)nc23)c(Cl)c1F` [Example 34, 3-chloro-4-(2-cyano-5-(((5-fluoro-2,3-dihydrobenzofuran-4-yl)methyl)amino)imidazo[1,2-c]pyrimidin-8-yl)-2-fluoro-N,N-dimethylbenzamide], the IC50 was less than 0.1 µM.

In turn, `CN(C)C(=O)c1cc(Cl)c(-c2cnc(NCc3c(F)ccc4c3CCO4)n3cc(C#N)nc23)cc1F` [Example 35, 5-chloro-4-(2-cyano-5-(((5-fluoro-2,3-dihydrobenzofuran-4-yl)methyl)amino)imidazo[1,2-c]pyrimidin-8-yl)-2-fluoro-N,N-dimethylbenzamide] showed an IC50 of less than 0.1 µM.

Turning to `CN(C)C(=O)c1ccc(-c2cnc(NCc3c(F)ccc4c3CCO4)n3cc(C#N)nc23)cc1F` [Example 36, 4-(2-cyano-5-(((5-fluoro-2,3-dihydrobenzofuran-4-yl)methyl)amino)imidazo[1,2-c]pyrimidin-8-yl)-2-fluoro-N,N-dimethylbenzamide], the IC50 is less than 0.1 µM.

In turn, `CN(C)Cc1ccc(-c2cnc(NCc3c(F)ccc4c3CCO4)n3cc(C#N)nc23)c(F)c1F` [Example 37, 8-(4-((dimethylamino)methyl)-2,3-difluorophenyl)-5-(((5-fluoro-2,3-dihydrobenzofuran-4-yl)methyl)amino)imidazo[1,2-c]pyrimidine-2-carbonitrile] yielded an IC50 of less than 0.1 µM.

Consider `CN(C)C(=O)c1cc(F)c(-c2cnc(NCc3c(F)ccc4c3CCO4)n3cc(C#N)nc23)cc1F` [Example 38, 4-(2-cyano-5-(((5-fluoro-2,3-dihydrobenzofuran-4-yl)methyl)amino)imidazo[1,2-c]pyrimidin-8-yl)-2,5-difluoro-N,N-dimethylbenzamide], for which the IC50 is less than 0.1 µM.

For `CN(C)Cc1cc(F)c(-c2cnc(NCc3c(F)ccc4c3CCO4)n3cc(C#N)nc23)cc1F` [Example 39, 8-(4-((dimethylamino)methyl)-2,5-difluorophenyl)-5-(((5-fluoro-2,3-dihydrobenzofuran-4-yl)methyl)amino)imidazo[1,2-c]pyrimidine-2-carbonitrile], the concentration for half-maximal inhibition (IC50) was less than 0.1 µM.

Molecule `CN(C)Cc1ncc(-c2cnc(NCc3c(F)ccc4c3CCO4)n3cc(C#N)nc23)cc1F` [Example 40, 8-(6-((dimethylamino)methyl)-5-fluoropyridin-3-yl)-5-(((5-fluoro-2,3-dihydrobenzofuran-4-yl)methyl)amino)imidazo[1,2-c]pyrimidine-2-carbonitrile] gave an IC50 of less than 0.1 µM.

Consider `Cc1cc(-c2cnc(NCc3c(F)ccc4c3CCO4)n3cc(C#N)nc23)cnn1` [Example 41, 5-(((5-fluoro-2,3-dihydrobenzofuran-4-yl)methyl)amino)-8-(6-methylpyridazin-4-yl)imidazo[1,2-c]pyrimidine-2-carbonitrile], for which the half-maximal inhibitory concentration (IC50) was less than 0.1 µM.

Molecule `CN(C)C(=O)c1ccc(-c2cnc(NCc3c(F)ccc4c3CCO4)n3cc(C#N)nc23)c(F)c1F` [Example 42, 4-(2-cyano-5-(((5-fluoro-2,3-dihydrobenzofuran-4-yl)methyl)amino)imidazo[1,2-c]pyrimidin-8-yl)-2,3-difluoro-N,N-dimethylbenzamide] showed an IC50 of less than 0.1 µM.

`Cc1cc(C(=O)N(C)C)c(F)cc1-c1cnc(NCc2c(F)ccc3c2CCO3)n2cc(C#N)nc12` [Example 43, 4-(2-cyano-5-(((5-fluoro-2,3-dihydrobenzofuran-4-yl)methyl)amino)imidazo[1,2-c]pyrimidin-8-yl)-2-fluoro-N,N,5-trimethylbenzamide] had an IC50 of less than 0.1 µM.

With `Cc1cc(C(=O)N(C)C)ccc1-c1cnc(NCc2c(F)ccc3c2CCO3)n2cc(C#N)nc12` [Example 44, 4-(2-cyano-5-(((5-fluoro-2,3-dihydrobenzofuran-4-yl)methyl)amino)imidazo[1,2-c]pyrimidin-8-yl)-N,N,3-trimethylbenzamide], the IC50 was less than 0.1 µM.

`CN(C)C(=O)c1c(F)cc(-c2cnc(NCc3c(F)ccc4c3CCO4)n3cc(C#N)nc23)cc1F` [Example 45, 4-(2-cyano-5-(((5-fluoro-2,3-dihydrobenzofuran-4-yl)methyl)amino)imidazo[1,2-c]pyrimidin-8-yl)-2,6-difluoro-N,N-dimethylbenzamide] gave an IC50 of less than 0.1 µM.

`N#Cc1cn2c(NCc3c(F)ccc4c3CCO4)ncc(-c3ccccc3)c2n1` [Example 46, 5-(((5-fluoro-2,3-dihydrobenzofuran-4-yl)methyl)amino)-8-phenylimidazo[1,2-c]pyrimidine-2-carbonitrile] had an IC50 of less than 0.1 µM.

The molecule `N#Cc1cn2c(NCc3c(F)ccc4c3CCO4)ncc(-c3ccc(S(N)(=O)=O)cc3)c2n1` [Example 47, 4-(2-cyano-5-(((5-fluoro-2,3-dihydrobenzofuran-4-yl)methyl)amino)imidazo[1,2-c]pyrimidin-8-yl)benzenesulfonamide] yielded an IC50 of less than 0.1 µM.

`Cc1cc(S(=O)(=O)N(C)C)ccc1-c1cnc(NCc2c(F)ccc3c2CCO3)n2cc(C#N)nc12` [Example 48, 4-(2-cyano-5-(((5-fluoro-2,3-dihydrobenzofuran-4-yl)methyl)amino)imidazo[1,2-c]pyrimidin-8-yl)-N,N,3-trimethylbenzenesulfonamide] had a 50% inhibitory concentration (IC50) of less than 0.1 µM.

Take `N#Cc1cn2c(NCc3c(F)ccc4c3CCO4)ncc(-c3ccc(CN4CCCC4=O)cc3)c2n1` [Example 49, 5-(((5-fluoro-2,3-dihydrobenzofuran-4-yl)methyl)amino)-8-(4-((2-oxopyrrolidin-1-yl)methyl)phenyl)imidazo[1,2-c]pyrimidine-2-carbonitrile]: the IC50 was less than 0.1 µM.

Turning to `COC1CN(Cc2ccc(-c3cnc(NCc4c(F)ccc5c4CCO5)n4cc(C#N)nc34)cc2)C1` [Example 50, 5-(((5-fluoro-2,3-dihydrobenzofuran-4-yl)methyl)amino)-8-(4-((3-methoxyazetidin-1-yl)methyl)phenyl)imidazo[1,2-c]pyrimidine-2-carbonitrile], the IC50 was less than 0.1 µM.

In the case of `N#Cc1cn2c(NCc3c(F)ccc4c3CCO4)ncc(-c3ccc(CN4CC(F)(F)C4)cc3)c2n1` [Example 51, 8-(4-((3,3-difluoroazetidin-1-yl)methyl)phenyl)-5-(((5-fluoro-2,3-dihydrobenzofuran-4-yl)methyl)amino)imidazo[1,2-c]pyrimidine-2-carbonitrile], the IC50 is less than 0.1 µM.

(Values after patent publication US20240398811A1, “PRC2 INHIBITORS FOR USE IN TREATING BLOOD DISORDERS” (ORIC Pharmaceuticals, Inc., priority 2021, published 2024).)
